From ChEMBL document CHEMBL3425509, “Design, synthesis, and biological evaluation of benzofuran- and 2,3-dihydrobenzofuran-2-carboxylic acid N-(substituted)phenylamide derivatives as anticancer agents and inhibitors of NF-κB” (Bioorg Med Chem Lett, 2015) come the findings set out here.

Assay [1] can be described thus: Cytotoxicity against human HCT15 cells assessed as cell viability at 10 uM after 72 hrs by sulforhodamine B assay relative to control. The assay is classed as functional. To be noted: HCT-15, 72 h, read-out: Activity.
Assay [2] concerns NCI-H23. The assay can be described thus: Cytotoxicity against human NCI-H23 cells assessed as cell viability at 10 uM after 72 hrs by sulforhodamine B assay relative to control. To be noted: NCI-H23, 72 h, read-out: Activity. The assay is classed as functional.
Assay [3] can be described thus: Cytotoxicity against human PC3 cells assessed as cell viability at 10 uM after 72 hrs by sulforhodamine B assay relative to control. The assay is classed as functional. To be noted: PC-3, 72 h, read-out: Activity.
Assay [4] has as its system ACHN. The assay can be described thus: Cytotoxicity against human ACHN cells assessed as cell viability at 10 uM after 72 hrs by sulforhodamine B assay relative to control. The assay is classed as functional. To be noted: read-out: Activity.
A short description of assay [5]: Cytotoxicity against human NUGC3 cells assessed as cell viability at 10 uM after 72 hrs by sulforhodamine B assay relative to control. The assay is classed as functional. Particulars: NUGC-3, 72 h, read-out: Activity.
Assay [6] deals with MDA-MB-231. Nature of the assay: Cytotoxicity against human MDA-MB-231 cells assessed as cell viability at 10 uM after 72 hrs by sulforhodamine B assay relative to control. The assay is classed as functional. Particulars: MDA-MB-231, 72 h, read-out: Activity.
The target in assay [7] is Nuclear factor NF-kappa-B complex (Homo sapiens) (UniProt Q00653+P19838+Q04206). The assay can be described thus: Inhibition of NF-kappaB (unknown origin) transcriptional activity in LPS-induced mouse RAW264.7 cells at 30 uM after 1 hr by secreted alkaline phosphatase assay relative to control. The assay is classed as cell-based.
Chain of Nuclear factor NF-kappa-B complex (Homo sapiens) (P19838 whole entry, looked up): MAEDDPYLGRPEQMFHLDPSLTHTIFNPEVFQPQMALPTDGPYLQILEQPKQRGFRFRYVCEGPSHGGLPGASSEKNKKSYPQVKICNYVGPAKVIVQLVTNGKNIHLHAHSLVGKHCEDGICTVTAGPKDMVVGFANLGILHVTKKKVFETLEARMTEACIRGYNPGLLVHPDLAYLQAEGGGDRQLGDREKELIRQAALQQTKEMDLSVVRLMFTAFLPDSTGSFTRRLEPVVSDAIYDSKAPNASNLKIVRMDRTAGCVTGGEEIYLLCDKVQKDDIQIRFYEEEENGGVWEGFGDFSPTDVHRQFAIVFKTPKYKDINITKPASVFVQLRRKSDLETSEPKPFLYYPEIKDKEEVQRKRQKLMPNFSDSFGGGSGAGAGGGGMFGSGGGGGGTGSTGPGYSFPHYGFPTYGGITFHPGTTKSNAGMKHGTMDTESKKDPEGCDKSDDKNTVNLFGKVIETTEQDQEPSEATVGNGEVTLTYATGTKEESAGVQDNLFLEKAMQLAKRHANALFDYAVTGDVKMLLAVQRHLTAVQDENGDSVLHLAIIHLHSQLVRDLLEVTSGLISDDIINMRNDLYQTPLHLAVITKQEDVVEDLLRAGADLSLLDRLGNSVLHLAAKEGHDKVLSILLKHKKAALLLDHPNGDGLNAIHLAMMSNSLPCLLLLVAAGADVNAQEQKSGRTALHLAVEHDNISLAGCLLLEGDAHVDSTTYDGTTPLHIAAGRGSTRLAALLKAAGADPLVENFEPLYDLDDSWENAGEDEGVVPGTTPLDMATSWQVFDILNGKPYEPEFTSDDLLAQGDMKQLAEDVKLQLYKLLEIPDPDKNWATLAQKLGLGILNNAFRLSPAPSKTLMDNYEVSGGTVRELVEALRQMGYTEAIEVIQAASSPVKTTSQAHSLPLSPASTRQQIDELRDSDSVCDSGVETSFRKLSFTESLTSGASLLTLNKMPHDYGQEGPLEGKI
Chain of Nuclear factor NF-kappa-B complex (Homo sapiens) (Q00653 whole entry, looked up): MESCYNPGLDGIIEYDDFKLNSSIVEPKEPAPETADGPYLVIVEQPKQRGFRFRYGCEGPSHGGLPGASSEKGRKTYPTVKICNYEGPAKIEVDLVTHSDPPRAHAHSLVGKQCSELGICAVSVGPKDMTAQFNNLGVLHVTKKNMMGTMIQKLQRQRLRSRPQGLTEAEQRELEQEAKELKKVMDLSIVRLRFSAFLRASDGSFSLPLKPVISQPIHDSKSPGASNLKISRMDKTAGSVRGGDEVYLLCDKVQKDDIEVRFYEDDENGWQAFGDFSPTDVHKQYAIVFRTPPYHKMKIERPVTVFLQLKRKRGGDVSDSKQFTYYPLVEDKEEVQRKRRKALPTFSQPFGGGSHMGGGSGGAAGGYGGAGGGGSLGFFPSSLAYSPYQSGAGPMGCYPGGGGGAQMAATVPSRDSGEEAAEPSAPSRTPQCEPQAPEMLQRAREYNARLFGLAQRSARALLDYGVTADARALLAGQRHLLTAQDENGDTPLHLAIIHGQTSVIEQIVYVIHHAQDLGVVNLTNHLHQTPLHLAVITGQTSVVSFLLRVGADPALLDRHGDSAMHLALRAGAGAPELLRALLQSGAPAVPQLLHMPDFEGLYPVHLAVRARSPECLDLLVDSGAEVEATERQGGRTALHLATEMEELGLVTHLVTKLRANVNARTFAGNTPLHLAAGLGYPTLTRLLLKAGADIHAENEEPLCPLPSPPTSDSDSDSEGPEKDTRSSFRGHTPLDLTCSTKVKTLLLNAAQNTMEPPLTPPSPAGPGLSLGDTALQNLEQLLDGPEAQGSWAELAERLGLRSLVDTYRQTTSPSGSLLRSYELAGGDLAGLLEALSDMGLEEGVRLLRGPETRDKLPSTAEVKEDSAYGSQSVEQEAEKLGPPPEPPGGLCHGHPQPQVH
Chain of Nuclear factor NF-kappa-B complex (Homo sapiens) (Q04206 whole entry, looked up): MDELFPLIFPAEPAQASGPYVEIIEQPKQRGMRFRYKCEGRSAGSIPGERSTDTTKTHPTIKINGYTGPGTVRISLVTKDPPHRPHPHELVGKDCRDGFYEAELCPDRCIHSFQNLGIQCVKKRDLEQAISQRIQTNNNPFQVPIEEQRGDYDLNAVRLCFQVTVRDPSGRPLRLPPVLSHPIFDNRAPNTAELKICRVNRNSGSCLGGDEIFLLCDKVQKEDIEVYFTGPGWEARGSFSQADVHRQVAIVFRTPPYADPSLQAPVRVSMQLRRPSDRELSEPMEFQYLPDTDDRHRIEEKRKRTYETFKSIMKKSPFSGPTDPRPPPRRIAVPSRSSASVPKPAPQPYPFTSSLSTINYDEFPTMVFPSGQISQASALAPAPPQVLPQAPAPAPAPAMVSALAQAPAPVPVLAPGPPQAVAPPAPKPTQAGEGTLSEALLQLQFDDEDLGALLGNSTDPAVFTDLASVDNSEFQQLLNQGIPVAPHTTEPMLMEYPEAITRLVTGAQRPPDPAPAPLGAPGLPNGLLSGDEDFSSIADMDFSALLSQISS

Turning to `O=C(Nc1cc(C(F)(F)F)cc(C(F)(F)F)c1)C1Cc2ccccc2O1` (configuration not stated), the viability at 10 µM in assay [1] stood at 92%; in assay [2] it was 92%; in assay [3], 96%; in assay [4] it was 94%; in assay [5], 105%; in assay [6], 105%. Besides, the inhibition in assay [7] was 25%.

For the compound `O=C(Nc1cccc(Cl)c1)C1Cc2ccccc2O1` (configuration not stated), the viability at 10 µM in assay [1] came to 97%; in assay [2], 101%; in assay [3], 91%; in assay [4], 134%; in assay [5], 101%; in assay [6] it was 80%. Further, the inhibition in assay [7] worked out at 43.5%.

As for `COc1ccc(NC(=O)c2cc3ccccc3o2)cc1OC`, the viability at 10 µM stood at 92% in assay [1]; 102% in assay [2]; 98% in assay [3]; 99% in assay [4]; 90% in assay [5]; 81% in assay [6]. The same compound came in with an inhibition in assay [7] of 40%.

Regarding `Cc1ccc(C)c(NC(=O)C2Cc3ccccc3O2)c1` (configuration not stated), the viability at 10 µM in assay [1] was determined as 88%; in assay [2] it was 103%; in assay [3] it was 55%; in assay [4] it was 129%; in assay [5] it was 81%; in assay [6], 88%. Also, in assay [7], the inhibition was 22%.

As for `O=C(Nc1ccc(Cl)cc1)C1Cc2ccccc2O1` (configuration not stated), the viability at 10 µM turned out to be 55% in assay [1]; 89% in assay [2]; 71% in assay [3]; 143% in assay [4]; 100% in assay [5]; 100% in assay [6]. In assay [7], this compound returned an inhibition of 41.5%.

With `O=C(Nc1ccccc1)C1Cc2ccccc2O1` (configuration not stated), the viability at 10 µM in assay [1] amounted to 88%; in assay [2], 93%; in assay [3], 92%; in assay [4], 95%; in assay [5], 87%; in assay [6], 101%. Further, the inhibition in assay [7] worked out at 10%.

For `O=C(Nc1ccccc1[N+](=O)[O-])C1Cc2ccccc2O1` (configuration not stated), the viability at 10 µM is 94% in assay [1]; 97% in assay [2]; 89% in assay [3]; 108% in assay [4]; 89% in assay [5]; 92% in assay [6]. This compound also displayed an inhibition in assay [7] of 28.5%.

Regarding `Cc1ccc(C)c(NC(=O)c2cc3ccccc3o2)c1`, the viability at 10 µM is 94% in assay [1]; 94% in assay [2]; 98% in assay [3]; 82% in assay [4]; 88% in assay [5]; 102% in assay [6]. In assay [7], the inhibition worked out at 58%.

Regarding `O=C(Nc1cccc(O)c1)c1cc2ccccc2o1`, the viability at 10 µM in assay [1] is 85%; in assay [2], 95%; in assay [3], 90%; in assay [4] it was 84%; in assay [5], 87%; in assay [6] it was 100%. The compound further had an inhibition in assay [7] of 41%.

Turning to `COc1cc(NC(=O)C2Cc3ccccc3O2)cc(OC)c1` (configuration not stated), the viability at 10 µM in assay [1] came out at 91%; in assay [2], 95%; in assay [3] it was 73%; in assay [4] it was 123%; in assay [5] it was 96%; in assay [6] it was 78%. For the same compound, the inhibition in assay [7] was determined as 24%.

For the compound `COc1ccccc1NC(=O)c1cc2ccccc2o1`, the viability at 10 µM came out at 94% in assay [1]; 98% in assay [2]; 106% in assay [3]; 95% in assay [4]; 99% in assay [5]; 97% in assay [6]. In assay [7], this compound returned an inhibition of 41%.

Consider `COc1ccc(NC(=O)c2cc3ccccc3o2)cc1`, for which the viability at 10 µM in assay [1] worked out at 87%; in assay [2], 101%; in assay [3], 111%; in assay [4], 109%; in assay [5], 102%; in assay [6], 110%. For the same compound, in assay [7], the inhibition is 39.5%.

Turning to `O=C(Nc1ccccc1C(F)(F)F)c1cc2ccccc2o1`, the viability at 10 µM is 99% in assay [1]; 100% in assay [2]; 95% in assay [3]; 98% in assay [4]; 93% in assay [5]; 114% in assay [6]. In assay [7], this compound returned an inhibition of 57.5%.

Turning to `Cc1cccc(NC(=O)c2cc3ccccc3o2)c1`, the viability at 10 µM in assay [1] came out at 87%; in assay [2], 101%; in assay [3] it was 94%; in assay [4], 93%; in assay [5] it was 99%; in assay [6], 106%. Further, the inhibition in assay [7] amounted to 38%.

`O=C(Nc1cccc(Cl)c1)c1cc2ccccc2o1`: the viability at 10 µM in assay [1] amounted to 52%; in assay [2], 61%; in assay [3] it was 95%; in assay [4], 69%; in assay [5], 83%; in assay [6], 80%. The same compound had an inhibition in assay [7] of 37%.

As for `O=C(Nc1ccccc1)c1cc2ccccc2o1`, the viability at 10 µM in assay [1] amounted to 75%; in assay [2] it was 98%; in assay [3], 83%; in assay [4], 89%; in assay [5], 97%; in assay [6], 94%. In assay [7], this compound returned an inhibition of 44%.

Regarding `Cc1ccc(NC(=O)C2Cc3ccccc3O2)cc1C` (configuration not stated), the viability at 10 µM in assay [1] was 97%; in assay [2] it was 92%; in assay [3] it was 94%; in assay [4], 137%; in assay [5] it was 99%; in assay [6], 86%. Moreover, in assay [7], the inhibition was determined as 44.5%.

For the compound `Cc1ccc(NC(=O)c2cc3ccccc3o2)cc1C`, the viability at 10 µM is 95% in assay [1]; 100% in assay [2]; 92% in assay [3]; 103% in assay [4]; 91% in assay [5]; 92% in assay [6]. The compound further had an inhibition in assay [7] of 70%.

As to `O=C(Nc1cc(Cl)ccc1Cl)c1cc2ccccc2o1`, the viability at 10 µM in assay [1] came to 81%; in assay [2] it was 96%; in assay [3], 97%; in assay [4], 96%; in assay [5] it was 89%; in assay [6], 101%. This compound displayed an inhibition in assay [7] of 36.5%.

For `O=C(Nc1ccccc1[N+](=O)[O-])c1cc2ccccc2o1`, the viability at 10 µM turned out to be 73% in assay [1]; 95% in assay [2]; 92% in assay [3]; 91% in assay [4]; 95% in assay [5]; 102% in assay [6]. In assay [7], this compound returned an inhibition of 25.5%.

Regarding `O=C(Nc1ccc([N+](=O)[O-])cc1)c1cc2ccccc2o1`, the viability at 10 µM in assay [1] was 84%; in assay [2], 101%; in assay [3], 87%; in assay [4], 94%; in assay [5] it was 95%; in assay [6] it was 111%. This compound showed an inhibition in assay [7] of 34.5%.

Take `Cc1cc(C)cc(NC(=O)c2cc3ccccc3o2)c1`: the viability at 10 µM in assay [1] is 79%; in assay [2], 99%; in assay [3], 94%; in assay [4], 101%; in assay [5], 93%; in assay [6], 94%. Also, in assay [7], the inhibition worked out at 70%.

For the compound `O=C(Nc1cc(C(F)(F)F)ccc1C(F)(F)F)C1Cc2ccccc2O1` (configuration not stated), the viability at 10 µM in assay [1] is 81%; in assay [2] it was 87%; in assay [3], 88%; in assay [4] it was 105%; in assay [5], 99%; in assay [6], 98%. For the same compound, the inhibition in assay [7] amounted to 34%.

In the case of `O=C(Nc1ccccc1O)c1cc2ccccc2o1`, the viability at 10 µM in assay [1] was found to be 58%; in assay [2] it was 86%; in assay [3] it was 68%; in assay [4], 84%; in assay [5], 84%; in assay [6], 85%. Moreover, the inhibition in assay [7] came out at 23%.

`O=C(Nc1ccc(Cl)cc1)c1cc2ccccc2o1`: the viability at 10 µM in assay [1] turned out to be 68%; in assay [2], 92%; in assay [3], 84%; in assay [4], 89%; in assay [5] it was 91%; in assay [6], 96%. Moreover, in assay [7], the inhibition was 43%.

`O=C(Nc1cccc(C(F)(F)F)c1)C1Cc2ccccc2O1` (configuration not stated): the viability at 10 µM in assay [1] turned out to be 95%; in assay [2], 100%; in assay [3] it was 69%; in assay [4], 134%; in assay [5], 93%; in assay [6], 102%. The same compound gave an inhibition in assay [7] of 30.5%.
